# From article PMC6364417, “Kinase inhibitor library screening identifies synergistic drug combinations effective in sensitive and resistant melanoma cells” (Journal of Experimental & Clinical Cancer Research : CR, 2019)
# Tests used:
# Test in all cases: Kinase inhibitor library screening, PrestoBlue cell viability, 1 or 10 μM, 72 h
# [1] = tested on: IGR37-GP cells (Dabrafenib-resistant)
# [2] = tested on: A375-XP cells (Vemurafenib-resistant)
# [3] = tested on: 501Mel-GP cells (Dabrafenib-resistant)
# [4] = tested on: A375-GP cells (Dabrafenib-resistant)
# [5] = tested on: 501Mel-XP cells (Vemurafenib-resistant)
# IGR37 cells (parental) = tested on: IGR37 cells (parental)
# 501Mel cells (parental) = tested on: 501Mel cells (parental)
# In short: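 Normalised to untreated controls, viability percentages came from PrestoBlue measured on a microplate reader following 72 h incubation with drug. Each line was assayed at least twice.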
# [6] = tested on: IGR37-XP cells (Vemurafenib-resistant)
# A375 cells (parental) = tested on: A375 cells (parental)
# [7] = IGR37 Parental, 10μΜ, 72 h, in %
# [8] = 501Mel Parental, 1μΜ, 72 h, in %
# [9] = 501Mel Parental, 10μΜ, 72 h, in %
# [10] = A375 Parental, 10μΜ, 72 h, in %
smiles,measurement,setting,value
CC(C)NC[C@@H](C(=O)N1CCN(c2ncnc3c2[C@H](C)C[C@H]3O)CC1)c1ccc(Cl)cc1 [GDC-0068],cell viability (kinase inhibitor library screening),"[1]; IGR37 GP, 1μΜ, 72 h",97.0%
same,cell viability (kinase inhibitor library screening),"[1]; IGR37 GP, 10μΜ, 72 h",79.0%
same,cell viability (kinase inhibitor library screening),"[2]; A375 XP, 10μΜ, 72 h",85.5%
same,cell viability (kinase inhibitor library screening),"[3]; 501Mel GP, 1μΜ, 72 h",92.7%
same,cell viability (kinase inhibitor library screening),"[3]; 501Mel GP, 10μΜ, 72 h",56.7%
same,cell viability (kinase inhibitor library screening),"[4]; A375 GP, 10μΜ, 72 h",79.9%
same,cell viability (kinase inhibitor library screening),"[5]; 501Mel XP, 1μΜ, 72 h",85.0%
same,cell viability (kinase inhibitor library screening),"[5]; 501Mel XP, 10μΜ, 72 h",36.9%
same,cell viability (kinase inhibitor library screening),"IGR37 cells (parental); IGR37 Parental, 1μΜ, 72 h",102.7%
same,cell viability (kinase inhibitor library screening),"IGR37 cells (parental); IGR37 Parental, 10μΜ, 72 h",90.8%
same,cell viability (kinase inhibitor library screening),"501Mel cells (parental); 501Mel Parental, 1μΜ, 72 h",103.4%
same,cell viability (kinase inhibitor library screening),"501Mel cells (parental); 501Mel Parental, 10μΜ, 72 h",81.6%
same,cell viability (kinase inhibitor library screening),"[6]; IGR37 XP, 1μΜ, 72 h",95.3%
same,cell viability (kinase inhibitor library screening),"[6]; IGR37 XP, 10μΜ, 72 h",23.8%
same,cell viability (kinase inhibitor library screening),"A375 cells (parental); A375 Parental, 10μΜ, 72 h",77.7%
same,cell viability (kinase inhibitor library screening),"A375 cells (parental); A375 Parental, 1μΜ, 72 h",104.3%
Cc1ccc(Nc2nccc(N(C)c3ccc4c(C)n(C)nc4c3)n2)cc1S(N)(=O)=O.Cl [Pazopanib HCl],cell viability (kinase inhibitor library screening),"[1]; IGR37 GP, 1μΜ, in %",83.2
same,cell viability (kinase inhibitor library screening),"[1]; IGR37 GP, 10μΜ, in %",61.1
same,cell viability (kinase inhibitor library screening),"[2]; A375 XP, 10μΜ, in %",75.2
same,cell viability (kinase inhibitor library screening),"[3]; 501Mel GP, 1μΜ, in %",95.6
same,cell viability (kinase inhibitor library screening),"[3]; 501Mel GP, 10μΜ, in %",65.3
same,cell viability (kinase inhibitor library screening),"[4]; A375 GP, 1μΜ, in %",98.9
same,cell viability (kinase inhibitor library screening),"[4]; A375 GP, 10μΜ, in %",71.0
same,cell viability (kinase inhibitor library screening),"[5]; 501Mel XP, 1μΜ, in %",88.8
same,cell viability (kinase inhibitor library screening),"[5]; 501Mel XP, 10μΜ, in %",48.8
same,cell viability (kinase inhibitor library screening),"IGR37 cells (parental); IGR37 Parental, 1μΜ, in %",96.1
same,cell viability (kinase inhibitor library screening),"IGR37 cells (parental); IGR37 Parental, 10μΜ, in %",84.7
same,cell viability (kinase inhibitor library screening),"501Mel cells (parental); 501Mel Parental, 1μΜ, in %",99.1
same,cell viability (kinase inhibitor library screening),"501Mel cells (parental); 501Mel Parental, 10μΜ, in %",86.1
same,cell viability (kinase inhibitor library screening),"[6]; IGR37 XP, 10μΜ, in %",65.8
same,cell viability (kinase inhibitor library screening),"A375 cells (parental); A375 Parental, 10μΜ, in %",71.9
O=C(NCCCNc1nc(Nc2cccc(NC(=O)N3CCCC3)c2)ncc1I)c1cccs1 [BX-795],"Cell viability in kinase inhibitor library screening, IGR37 GP, 10μΜ","[1]; IGR37 GP, 10μΜ, 72 h",15.1%
same,"Cell viability in kinase inhibitor library screening, IGR37 GP, 1μΜ","[1]; IGR37 GP, 1μΜ, 72 h, in %",85.8
same,"Cell viability in kinase inhibitor library screening, A375 XP, 1μΜ","[2]; A375 XP, 1μΜ, 72 h",93.4
same,"Cell viability in kinase inhibitor library screening, A375 XP, 10μΜ","[2]; A375 XP, 10μΜ, 72 h",48.3
same,"Cell viability in kinase inhibitor library screening, 501Mel GP, 1μΜ","[3]; 501Mel GP, 1μΜ, 72 h, in %",97.1
same,"Cell viability in kinase inhibitor library screening, 501Mel GP, 10μΜ","[3]; 501Mel GP, 10μΜ, 72 h, in %",64.9
same,"Cell viability in kinase inhibitor library screening, A375 GP, 1μΜ","[4]; A375 GP, 1μΜ, 72 h",86.6
same,"Cell viability in kinase inhibitor library screening, A375 GP, 10μΜ","[4]; A375 GP, 10μΜ, 72 h",43.6
same,"Cell viability in kinase inhibitor library screening, 501Mel XP, 1μΜ","[5]; 501Mel XP, 1μΜ, 72 h, in %",89.4
same,"Cell viability in kinase inhibitor library screening, 501Mel XP, 10μΜ","[5]; 501Mel XP, 10μΜ, 72 h, in %",39.9
same,"Cell viability in kinase inhibitor library screening, IGR37 Parental, 1μΜ","IGR37 cells (parental); IGR37 Parental, 1μΜ, 72 h, in %",97.9
same,"Cell viability in kinase inhibitor library screening, IGR37 Parental, 10μΜ",IGR37 cells (parental); [7],56.4
same,"Cell viability in kinase inhibitor library screening, 501Mel Parental, 1μΜ",501Mel cells (parental); [8],92.8
same,"Cell viability in kinase inhibitor library screening, 501Mel Parental, 10μΜ",501Mel cells (parental); [9],82.7
same,"Cell viability in kinase inhibitor library screening, IGR37 XP, 10μΜ","[6]; IGR37 XP, 10μΜ, 72 h",7.6%
same,"Cell viability in kinase inhibitor library screening, IGR37 XP, 1μΜ","[6]; IGR37 XP, 1μΜ, 72 h, in %",93.9
same,"Cell viability in kinase inhibitor library screening, A375 Parental, 10μΜ","A375 cells (parental); A375 Parental, 10μΜ, 72 h",38.1
same,"Cell viability in kinase inhibitor library screening, A375 Parental, 1μΜ","A375 cells (parental); A375 Parental, 1μΜ, 72 h",87.7
CC(C)(C)c1cc(/C=C(\C#N)C(N)=S)cc(C(C)(C)C)c1O [Tyrphostin AG 879 (AG 879)],"cell viability, IGR37 GP, 10μΜ","[1]; IGR37 GP, 10μΜ, 72 h",60.1%
same,"cell viability, A375 XP, 1μΜ","[2]; A375 XP, 1μΜ, 72 h, in %",105.8
same,"cell viability, A375 XP, 10μΜ","[2]; A375 XP, 10μΜ, 72 h, in %",24.1
same,"cell viability, 501Mel GP, 1μΜ","[3]; 501Mel GP, 1μΜ, 72 h, in %",110.4
same,"cell viability, 501Mel GP, 10μΜ","[3]; 501Mel GP, 10μΜ, 72 h, in %",23.6
same,"cell viability, A375 GP, 10μΜ","[4]; A375 GP, 10μΜ, 72 h, in %",19.7
same,"cell viability, 501Mel XP, 1μΜ","[5]; 501Mel XP, 1μΜ, 72 h, in %",98.6
same,"cell viability, 501Mel XP, 10μΜ","[5]; 501Mel XP, 10μΜ, 72 h, in %",18.3
same,"cell viability, IGR37 Parental, 10μΜ",IGR37 cells (parental); [7],83.4
same,"cell viability, 501Mel Parental, 1μΜ",501Mel cells (parental); [8],115.0
same,"cell viability, 501Mel Parental, 10μΜ",501Mel cells (parental); [9],44.8
same,"cell viability, IGR37 XP, 10μΜ","[6]; IGR37 XP, 10μΜ, 72 h",21.5%
same,"cell viability, IGR37 XP, 1μΜ","[6]; IGR37 XP, 1μΜ, 72 h, in %",90.9
same,"cell viability, A375 Parental, 1μΜ","A375 cells (parental); A375 Parental, 1μΜ, 72 h, in %",103.1
same,"cell viability, A375 Parental, 10μΜ",A375 cells (parental); [10],21.0
"COc1cc2ncnc(Nc3ccc(F)c(Cl)c3)c2cc1NC(=O)/C=C/CN1CCCCC1 [Dacomitinib (PF299804,PF-00299804)]","cell viability, IGR37 GP, 10μΜ","[1]; IGR37 GP, 10μΜ, 72 h",2.6%
same,"cell viability, A375 XP, 1μΜ","[2]; A375 XP, 1μΜ, 72 h, in %",96.8
same,"cell viability, A375 XP, 10μΜ","[2]; A375 XP, 10μΜ, 72 h, in %",1.1
same,"cell viability, 501Mel GP, 1μΜ","[3]; 501Mel GP, 1μΜ, 72 h, in %",106.7
same,"cell viability, 501Mel GP, 10μΜ","[3]; 501Mel GP, 10μΜ, 72 h, in %",-0.4
same,"cell viability, A375 GP, 1μΜ","[4]; A375 GP, 1μΜ, 72 h, in %",97.2
same,"cell viability, A375 GP, 10μΜ","[4]; A375 GP, 10μΜ, 72 h, in %",1.9
same,"cell viability, 501Mel XP, 10μΜ","[5]; 501Mel XP, 10μΜ, 72 h, in %",-0.2
same,"cell viability, IGR37 Parental, 10μΜ",IGR37 cells (parental); [7],1.1
same,"cell viability, 501Mel Parental, 10μΜ",501Mel cells (parental); [9],0.5
same,"cell viability, IGR37 XP, 10μΜ","[6]; IGR37 XP, 10μΜ, 72 h",1.3%
same,"cell viability, IGR37 XP, 1μΜ","[6]; IGR37 XP, 1μΜ, 72 h, in %",80.1
same,"cell viability, A375 Parental, 1μΜ","A375 cells (parental); A375 Parental, 1μΜ, 72 h, in %",94.4
same,"cell viability, A375 Parental, 10μΜ",A375 cells (parental); [10],3.4
Cc1cc(Nc2cc(CN3CCOCC3)c3nc(C)c(Cc4ccc(Cl)cc4F)n3n2)n[nH]1 [LY2784544],viability at 1 µM,"[1]; Homo sapiens, IGR-37, 72 h, read-out: cell viability, IGR37 GP, 1μΜ",90.3%
same,viability at 10 µM,"[1]; Homo sapiens, IGR-37, 72 h, read-out: cell viability, IGR37 GP, 10μΜ",53.2%
same,viability at 1 µM,"[2]; Homo sapiens, A-375, 72 h, read-out: cell viability, A375 XP, 1μΜ",102%
same,viability at 10 µM,"[2]; Homo sapiens, A-375, 72 h, read-out: cell viability, A375 XP, 10μΜ",35.9%
same,viability at 1 µM,"[3]; Homo sapiens, 72 h, read-out: cell viability, 501Mel GP, 1μΜ",99.1%
same,viability at 10 µM,"[3]; Homo sapiens, 72 h, read-out: cell viability, 501Mel GP, 10μΜ",49%
same,viability at 1 µM,"[4]; Homo sapiens, A-375, 72 h, read-out: cell viability, A375 GP, 1μΜ",101%
same,viability at 10 µM,"[4]; Homo sapiens, A-375, 72 h, read-out: cell viability, A375 GP, 10μΜ",26.9%
same,viability at 1 µM,"[5]; Homo sapiens, 72 h, read-out: cell viability, 501Mel XP, 1μΜ",87.1%
same,viability at 10 µM,"[5]; Homo sapiens, 72 h, read-out: cell viability, 501Mel XP, 10μΜ",27.9%
same,viability at 1 µM,"IGR37 cells (parental); Homo sapiens, IGR-37, 72 h, read-out: cell viability, IGR37 Parental, 1μΜ",99.2%
same,viability at 10 µM,"IGR37 cells (parental); Homo sapiens, IGR-37, 72 h, read-out: cell viability, IGR37 Parental, 10μΜ",87%
same,viability at 1 µM,"501Mel cells (parental); Homo sapiens, 72 h, read-out: cell viability, 501Mel Parental, 1μΜ",89.9%
same,viability at 10 µM,"501Mel cells (parental); Homo sapiens, 72 h, read-out: cell viability, 501Mel Parental, 10μΜ",67.3%
same,viability at 1 µM,"[6]; Homo sapiens, IGR-37, 72 h, read-out: cell viability, IGR37 XP, 1μΜ",91.6%
same,viability at 10 µM,"[6]; Homo sapiens, IGR-37, 72 h, read-out: cell viability, IGR37 XP, 10μΜ",17.9%
same,viability at 1 µM,"A375 cells (parental); Homo sapiens, A-375, 72 h, read-out: cell viability, A375 Parental, 1μΜ",94.9%
same,viability at 10 µM,"A375 cells (parental); Homo sapiens, A-375, 72 h, read-out: cell viability, A375 Parental, 10μΜ",28.1%
